Data: patent US20240109917A1 (ACTELION PHARMACEUTICALS LTD, priority 2020, published 2024)
Like-named read-outs stand apart in the source and are kept apart here.

Key:
[1] = molecular target: His6-TEV-PDGFRβ (557-1016) (Homo sapiens (Human), UniProt P09619); test: PDGFRβ HTRF Assay; type: biochemical; conditions: read-out: PDGFR HTRF IC50
How it was run: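 Human PDGFRβ (557-1016) pre-incubated with compound for 30 min at RT in pH 7.5 HEPES/MgCl2/EGTA/Brij-35/DTT buffer. Reaction started with ATP and TK-biotin peptide, run 3 h at RT, then quenched with EDTA-containing Eu-cryptate antibody/streptavidin-XL665. HTRF 665/620 nm ratio read after 60 min; percent inhibition relative to DMSO and 10 μM imatinib controls.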

[2] = molecular target: Tb-labeled inactive PDGFRβ (Homo sapiens (Human), UniProt P09619); test: PDGFRβ LanthaScreen Assay; type: binding; conditions: read-out: PDGFR Lantha IC50
Sequence of Tb-labeled inactive PDGFRβ (P09619 33-1106): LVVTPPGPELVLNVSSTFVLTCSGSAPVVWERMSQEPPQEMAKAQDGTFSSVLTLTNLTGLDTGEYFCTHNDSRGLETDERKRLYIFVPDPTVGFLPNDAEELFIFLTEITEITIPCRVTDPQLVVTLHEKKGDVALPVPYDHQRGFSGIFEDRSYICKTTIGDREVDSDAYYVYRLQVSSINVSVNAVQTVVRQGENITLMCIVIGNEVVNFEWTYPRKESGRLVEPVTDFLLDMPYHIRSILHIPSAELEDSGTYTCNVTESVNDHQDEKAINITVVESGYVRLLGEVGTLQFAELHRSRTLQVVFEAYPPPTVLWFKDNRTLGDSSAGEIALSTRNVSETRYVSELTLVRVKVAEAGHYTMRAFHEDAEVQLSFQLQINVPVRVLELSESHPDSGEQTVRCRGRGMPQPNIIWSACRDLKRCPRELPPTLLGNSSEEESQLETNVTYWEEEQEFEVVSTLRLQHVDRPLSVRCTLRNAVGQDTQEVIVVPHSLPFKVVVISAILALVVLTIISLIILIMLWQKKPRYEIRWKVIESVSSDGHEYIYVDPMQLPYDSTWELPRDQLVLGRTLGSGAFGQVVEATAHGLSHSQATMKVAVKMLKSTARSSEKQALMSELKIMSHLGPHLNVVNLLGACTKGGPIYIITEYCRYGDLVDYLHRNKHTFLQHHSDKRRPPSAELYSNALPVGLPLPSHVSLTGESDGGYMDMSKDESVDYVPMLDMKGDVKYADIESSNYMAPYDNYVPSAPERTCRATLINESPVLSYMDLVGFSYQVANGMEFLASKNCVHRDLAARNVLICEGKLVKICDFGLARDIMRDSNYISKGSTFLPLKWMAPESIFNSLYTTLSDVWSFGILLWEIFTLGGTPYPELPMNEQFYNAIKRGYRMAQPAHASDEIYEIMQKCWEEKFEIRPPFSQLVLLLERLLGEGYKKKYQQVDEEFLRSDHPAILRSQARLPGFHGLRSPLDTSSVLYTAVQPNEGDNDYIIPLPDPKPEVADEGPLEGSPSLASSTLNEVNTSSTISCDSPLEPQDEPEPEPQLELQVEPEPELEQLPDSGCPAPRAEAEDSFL

[3] = molecular target: PDGFRβ (Rattus norvegicus (Rat), UniProt Q05030); test: PDGFRβ Cellular Assay (PDGFRb P-Y751 HTRF in A10 cells stimulated with PDGF-BB); type: cell-based
Sequence of PDGFRβ (Q05030 32-1097): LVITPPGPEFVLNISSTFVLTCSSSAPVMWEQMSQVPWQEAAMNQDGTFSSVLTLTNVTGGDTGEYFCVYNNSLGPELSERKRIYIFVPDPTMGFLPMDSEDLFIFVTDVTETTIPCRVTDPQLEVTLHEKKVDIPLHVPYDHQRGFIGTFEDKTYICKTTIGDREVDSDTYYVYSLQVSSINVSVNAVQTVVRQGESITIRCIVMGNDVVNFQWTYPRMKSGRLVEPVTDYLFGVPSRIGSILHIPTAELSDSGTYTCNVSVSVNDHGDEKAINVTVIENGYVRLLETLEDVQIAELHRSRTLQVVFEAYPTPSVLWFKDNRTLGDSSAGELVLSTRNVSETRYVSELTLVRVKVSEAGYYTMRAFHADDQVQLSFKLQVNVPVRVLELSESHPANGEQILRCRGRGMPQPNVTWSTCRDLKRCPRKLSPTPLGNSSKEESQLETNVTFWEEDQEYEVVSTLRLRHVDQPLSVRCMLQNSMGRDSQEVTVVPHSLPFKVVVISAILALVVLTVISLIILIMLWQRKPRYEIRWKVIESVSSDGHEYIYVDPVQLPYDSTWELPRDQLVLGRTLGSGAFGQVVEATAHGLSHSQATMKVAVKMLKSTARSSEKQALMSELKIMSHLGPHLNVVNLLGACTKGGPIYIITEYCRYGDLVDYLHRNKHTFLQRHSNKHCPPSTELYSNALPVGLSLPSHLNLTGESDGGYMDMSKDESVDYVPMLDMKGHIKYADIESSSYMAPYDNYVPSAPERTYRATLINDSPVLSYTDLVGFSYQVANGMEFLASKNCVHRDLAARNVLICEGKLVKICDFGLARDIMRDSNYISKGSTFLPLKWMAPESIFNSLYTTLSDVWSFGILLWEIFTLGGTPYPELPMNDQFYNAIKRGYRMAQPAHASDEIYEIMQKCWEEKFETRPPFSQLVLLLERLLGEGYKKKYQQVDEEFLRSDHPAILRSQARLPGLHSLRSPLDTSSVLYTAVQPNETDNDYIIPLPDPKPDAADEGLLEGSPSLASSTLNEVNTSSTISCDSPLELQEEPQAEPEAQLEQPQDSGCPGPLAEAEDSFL
How it was run: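 Rat A10 cells, plated overnight, were treated with compound for 3 hours, then stimulated with PDGF-BB (working stock 100 ng/mL in 10% FBS medium). After lysis, PDGFRβ P-Y751 was detected by HTRF.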

Sequence of His6-TEV-PDGFRβ (557-1016) (P09619 557-1016): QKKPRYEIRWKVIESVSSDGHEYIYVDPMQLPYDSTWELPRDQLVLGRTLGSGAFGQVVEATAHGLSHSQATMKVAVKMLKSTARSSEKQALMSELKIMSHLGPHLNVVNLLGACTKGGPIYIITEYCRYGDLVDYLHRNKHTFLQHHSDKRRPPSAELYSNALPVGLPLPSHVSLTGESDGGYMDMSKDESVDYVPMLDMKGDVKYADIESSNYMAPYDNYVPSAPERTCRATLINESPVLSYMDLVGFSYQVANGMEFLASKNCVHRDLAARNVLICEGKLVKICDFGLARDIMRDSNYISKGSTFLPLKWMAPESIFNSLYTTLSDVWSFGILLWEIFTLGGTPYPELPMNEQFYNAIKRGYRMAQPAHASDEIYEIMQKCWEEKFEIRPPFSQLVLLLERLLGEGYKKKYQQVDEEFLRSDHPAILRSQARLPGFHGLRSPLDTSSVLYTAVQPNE

Compound: Cc1ncc(NC(=O)CN2CCC3(CCCO3)C2)cc1NC(=O)c1cnn2cc(-c3cnn(C)c3)sc12 (stereo not drawn) [Example 21, N-(5-(2-(1-oxa-7-azaspiro[4.4]nonan-7-yl)acetamido)-2-methylpyridin-3-yl)-2-(1-methyl-1H-pyrazol-4-yl)pyrazolo[5,1-b]thiazole-7-carboxamide]
- IC50 [1]: 0.7 nM
- IC50 [2]: 5.7 nM
- IC50 ([3]; read-out: PDGFR Cellular IC50): 10.9 nM

Compound: COc1ncccc1-c1cn2ncc(C(=O)Nc3cc(NC(=O)CN4CCCC4)cnc3C)c2s1 [Example 313, 2-(2-methoxypyridin-3-yl)-N-(2-methyl-5-(2-(pyrrolidin-1-yl)acetamido)pyridin-3-yl)pyrazolo[5,1-b]thiazole-7-carboxamide]
- IC50 [1]: 0.2 nM
- IC50 [2]: 2.6 nM
- IC50 ([3]; read-out: PDGFR Cellular IC50): 2.8 nM

Compound: COc1ncccc1-c1cn2ncc(C(=O)Nc3cc(C(=O)NCCN4CCC[C@@H]4C)cnc3C)c2s1 [Example 301, (S)-2-(2-methoxypyridin-3-yl)-N-(2-methyl-5-((2-(2-methylpyrrolidin-1-yl)ethyl)carbamoyl)pyridin-3-yl)pyrazolo[5,1-b]thiazole-7-carboxamide]
- IC50 [1]: 0.2 nM
- IC50 [2]: 1.4 nM
- IC50 ([3]; read-out: PDGFR Cellular IC50): 4.3 nM

Compound: Cc1ncc(NC(=O)CN2CC(C)(C)C2)cc1NC(=O)c1cnn2cc(-c3cnn(CCO)c3)sc12 [Example 290, N-(5-(2-(3,3-dimethylazetidin-1-yl)acetamido)-2-methylpyridin-3-yl)-2-(1-(2-hydroxyethyl)-1H-pyrazol-4-yl)pyrazolo[5,1-b]thiazole-7-carboxamide]
- IC50 [1]: 0.4 nM
- IC50 [2]: 3.3 nM
- IC50 ([3]; read-out: PDGFR Cellular IC50): 19.5 nM

Compound: Cc1ncc(NC(=O)CN2CCc3ccncc3C2)cc1NC(=O)c1cnn2cc(-c3cnn(C)c3)sc12 [Example 23, N-(5-(2-(3,4-dihydro-2,7-naphthyridin-2 (1H)-yl)acetamido)-2-methylpyridin-3-yl)-2-(1-methyl-1H-pyrazol-4-yl)pyrazolo[5,1-b]thiazole-7-carboxamide]
- IC50 [1]: 0.7 nM
- IC50 [2]: 1.3 nM
- IC50 ([3]; PDGFR Cellular IC50): 67.7 nM

Compound: Cc1ncc(NC(=O)CN(C)C2CCOCC2)cc1NC(=O)c1cnn2cc(-c3cnn(C4CC4)c3)sc12 [Example 294, 2-(1-cyclopropyl-1H-pyrazol-4-yl)-N-(2-methyl-5-(2-(methyl(tetrahydro-2H-pyran-4-yl)amino)acetamido)pyridin-3-yl)pyrazolo[5,1-b]thiazole-7-carboxamide]
- IC50 [1]: 0.3 nM
- IC50 [2]: 5.1 nM
- IC50 ([3]; read-out: PDGFR Cellular IC50): 12.7 nM

Compound: Cc1ncc(NC(=O)CN2CCCC(O)C2)cc1NC(=O)c1cnn2cc(-c3cnn(C)c3)sc12 (stereo not drawn) [Example 303, N-(5-(2-(3-hydroxypiperidin-1-yl)acetamido)-2-methylpyridin-3-yl)-2-(1-methyl-1H-pyrazol-4-yl)pyrazolo[5,1-b]thiazole-7-carboxamide]
- IC50 [1]: 0.4 nM
- IC50 [2]: 5.8 nM
- IC50 ([3]; read-out: PDGFR Cellular IC50): 121 nM

Compound: CNC(=O)Cn1cc(-c2cn3ncc(C(=O)Nc4cc(NC(=O)CN5CC(C)(C)C5)cnc4C)c3s2)cn1 [Example 279, N-(5-(2-(3,3-dimethylazetidin-1-yl)acetamido)-2-methylpyridin-3-yl)-2-(1-(2-(methylamino)-2-oxoethyl)-1H-pyrazol-4-yl)pyrazolo[5,1-b]thiazole-7-carboxamide]
- IC50 [1]: 0.4 nM
- IC50 [2]: 8.6 nM
- IC50 ([3]; read-out: PDGFR Cellular IC50): 134 nM

Compound: Cc1ncc(NC(=O)[C@@H]2CCCN3CCCC[C@H]23)cc1NC(=O)c1cnn2cc(-c3cnn(C)c3)sc12 [Example 308, 2-(1-methyl-1H-pyrazol-4-yl)-N-(2-methyl-5-((1R,9aR)-octahydro-2H-quinolizine-1-carboxamido)pyridin-3-yl)pyrazolo[5,1-b]thiazole-7-carboxamide]
- IC50 [1]: 20.9 nM
- IC50 [2]: 710 nM
- IC50 ([3]; read-out: PDGFR Cellular IC50): 311 nM

Compound: Cc1ncc(NC(=O)OC[C@@H]2CCCN2C)cc1NC(=O)c1cnn2cc(-c3cccc4c3cnn4C)sc12 [Example 257, (S)-(1-methylpyrrolidin-2-yl)methyl (6-methyl-5-(2-(1-methyl-1H-indazol-4-yl)pyrazolo[5,1-b]thiazole-7-carboxamido)pyridin-3-yl)carbamate]
- IC50 [1]: 0.2 nM
- IC50 [2]: 2.6 nM
- IC50 ([3]; read-out: PDGFR Cellular IC50): 13.1 nM

Compound: Cc1ncc(NC(=O)CN(C)C2CCOCC2)cc1NC(=O)c1cnn2cc(-c3cnn(CC#N)c3)sc12 [Example 299, 2-(1-(cyanomethyl)-1H-pyrazol-4-yl)-N-(2-methyl-5-(2-(methyl(tetrahydro-2H-pyran-4-yl)amino)acetamido)pyridin-3-yl)pyrazolo[5,1-b]thiazole-7-carboxamide]
- IC50 [1]: 0.5 nM
- IC50 [2]: 6 nM
- IC50 ([3]; read-out: PDGFR Cellular IC50): 102 nM

Compound: Cc1ncc(NC(=O)CN2CCCC3(COC3)C2)cc1NC(=O)c1cnn2cc(-c3cnn(C)c3)sc12 [Example 24, N-(5-(2-(2-oxa-6-azaspiro[3.5]nonan-6-yl)acetamido)-2-methylpyridin-3-yl)-2-(1-methyl-1H-pyrazol-4-yl)pyrazolo[5,1-b]thiazole-7-carboxamide]
- IC50 [1]: 0.7 nM
- IC50 [2]: 4.5 nM
- IC50 ([3]; read-out: PDGFR Cellular IC50): 31.8 nM

Compound: Cc1ncc(NC(=O)CN2CCCC2(C)C)cc1NC(=O)c1cnn2cc(-n3ncc4cccnc43)sc12 [Example 259, N-(5-(2-(2,2-dimethylpyrrolidin-1-yl)acetamido)-2-methylpyridin-3-yl)-2-(1H-pyrazolo[3,4-b]pyridin-1-yl)pyrazolo[5,1-b]thiazole-7-carboxamide]
- IC50 [1]: 0.4 nM
- IC50 [2]: 2.8 nM
- IC50 ([3]; read-out: PDGFR Cellular IC50): 3.9 nM

Compound: COc1ncccc1-c1cn2ncc(C(=O)Nc3cc(NC(=O)OCCN4CCCC4(C)C)cnc3C)c2s1 [Example 254, 2-(2,2-dimethylpyrrolidin-1-yl)ethyl (5-(2-(2-methoxypyridin-3-yl)pyrazolo[5,1-b]thiazole-7-carboxamido)-6-methylpyridin-3-yl)carbamate]
- IC50 [1]: 0.2 nM
- IC50 [2]: 2.6 nM
- IC50 ([3]; read-out: PDGFR Cellular IC50): 6.2 nM

Compound: Cc1ncc(NC(=O)CN2CCCC23COC3)cc1NC(=O)c1cnn2cc(-c3cnn(C)c3)sc12 [Example 20, N-(5-(2-(2-oxa-5-azaspiro[3.4]octan-5-yl)acetamido)-2-methyl-pyridin-3-yl)-2-(1-methyl-1H-pyrazol-4-yl)pyrazolo[5,1-b]thiazole-7-carboxamide]
- IC50 [1]: 0.7 nM
- IC50 [2]: 8.2 nM
- IC50 ([3]; read-out: PDGFR Cellular IC50): 35.9 nM

Compound: Cc1ncc(NC(=O)CN2CC(C)(C)C2)cc1NC(=O)c1cnn2cc(-c3cnn(CS(C)(=O)=O)c3)sc12 [Example 265, N-(5-(2-(3,3-dimethylazetidin-1-yl)acetamido)-2-methylpyridin-3-yl)-2-(1-((methylsulfonyl)methyl)-1H-pyrazol-4-yl)pyrazolo[5,1-b]thiazole-7-carboxamide]
- IC50 [1]: 0.5 nM
- IC50 [2]: 8.7 nM
- IC50 ([3]; read-out: PDGFR Cellular IC50): 114 nM

Compound: Cc1ncc(NC(=O)CN2CC(C)(C)C2)cc1NC(=O)c1cnn2cc(-c3cc[nH]c3)sc12 [Example 285, N-(5-(2-(3,3-dimethylazetidin-1-yl)acetamido)-2-methylpyridin-3-yl)-2-(1H-pyrrol-3-yl)pyrazolo[5,1-b]thiazole-7-carboxamide]
- IC50 [1]: 0.1 nM
- IC50 [2]: 1.3 nM
- IC50 ([3]; read-out: PDGFR Cellular IC50): 1.2 nM

Compound: Cc1ncc(NC(=O)CN2CC(C)(C)C2)cc1NC(=O)c1cnn2cc(-c3ccn(S(C)(=O)=O)c3)sc12 [Example 275, N-(5-(2-(3,3-dimethylazetidin-1-yl)acetamido)-2-methylpyridin-3-yl)-2-(1-(methylsulfonyl)-1H-pyrrol-3-yl)pyrazolo[5,1-b]thiazole-7-carboxamide]
- IC50 [1]: 0.2 nM
- IC50 [2]: 2.5 nM
- IC50 ([3]; PDGFR Cellular IC50): 7.6 nM

Compound: Cc1ncc(NC(=O)OC[C@@H]2CCCN2C)cc1NC(=O)c1cnn2cc(-c3cc[nH]c3)sc12 [Example 258, (S)-(1-methylpyrrolidin-2-yl)methyl (5-(2-(1H-pyrrol-3-yl)pyrazolo[5,1-b]thiazole-7-carboxamido)-6-methylpyridin-3-yl)carbamate]
- IC50 [1]: 0.4 nM
- IC50 [2]: 4.2 nM
- IC50 ([3]; read-out: PDGFR Cellular IC50): 48.7 nM

Compound: COc1ncccc1-c1cn2ncc(C(=O)Nc3cc(NC(=O)CN4CCO[C@H](C)C4)cnc3C)c2s1 [Example 318, (R)-2-(2-methoxypyridin-3-yl)-N-(2-methyl-5-(2-(2-methylmorpholino)acetamido)pyridin-3-yl)pyrazolo[5,1-b]thiazole-7-carboxamide]
- IC50 [1]: 0.3 nM
- IC50 [2]: 1.9 nM
- IC50 ([3]; PDGFR Cellular IC50): 3.8 nM

Compound: COc1ncccc1-c1cn2ncc(C(=O)Nc3cc(NC(=O)C4CCCCN4C(C)C)cnc3C)c2s1 (stereo not drawn) [Example 315, N-(5-(1-isopropylpiperidine-2-carboxamido)-2-methylpyridin-3-yl)-2-(2-methoxypyridin-3-yl)pyrazolo[5,1-b]thiazole-7-carboxamide]
- IC50 [1]: 0.3 nM
- IC50 [2]: 4.6 nM
- IC50 ([3]; read-out: PDGFR Cellular IC50): 5.4 nM

Compound: Cc1ncc(NC(=O)OC[C@@H]2CCCN2C)cc1NC(=O)c1cnn2cc(-c3cccnc3O)sc12 [Example 256, (S)-(1-methylpyrrolidin-2-yl)methyl (5-(2-(2-hydroxypyridin-3-yl)pyrazolo[5,1-b]thiazole-7-carboxamido)-6-methylpyridin-3-yl)carbamate]
- IC50 [1]: 0.6 nM
- IC50 [2]: 14.9 nM
- IC50 ([3]; PDGFR Cellular IC50): 1340 nM

Compound: Cc1ncc(NC(=O)C[C@@H]2CCCCN2C(C)C)cc1NC(=O)c1cnn2cc(-c3cnn(C)c3)sc12 [Example 305, (S)—N-(5-(2-(1-isopropylpiperidin-2-yl)acetamido)-2-methylpyridin-3-yl)-2-(1-methyl-1H-pyrazol-4-yl)pyrazolo[5,1-b]thiazole-7-carboxamide]
- IC50 [1]: 2.1 nM
- IC50 [2]: 57.8 nM
- IC50 ([3]; read-out: PDGFR Cellular IC50): 308 nM
